# Measured values reported in patent US20220135622A1, “ANTIBACTERIAL PEPTIDES AND METHODS OF USE” (priority 2019, published 2022).
# Like-named read-outs stand apart in the source and are kept apart here. Square brackets hold non-standard residues; d marks the D form. Peptide text beside a SMILES is read from it. Bip = N[C@@H](Cc1ccc(-c2ccccc2)cc1)C(=O)O; NMeF = CN[C@@H](Cc1ccccc1)C(=O)O; NMeM = CN[C@@H](CCSC)C(=O)O; Pip = O=C(O)[C@@H]1CCCCN1; NMeA = CN[C@@H](C)C(=O)O; Dap = NC[C@H](N)C(=O)O; Aib = CC(C)(N)C(=O)O
# Test system: E. coli BW25113
# Assay type: cell-based, Escherichia coli
# Experimental: Bacterial growth conditions. LB or Mueller Hinton II cation-adjusted broth (MHB II, BBL 212322) was prepared according to manufacturer's instructions and supplemented with arabinose at 0.02% for overnight growth or at indicated concentrations in the description of the figures. Bacterial cultures were grown at 37° C. When appropriate, media was supplemented with kanamycin (50 μg/mL), carbenicillin (50 μg/mL), chloramphenicol (12.5 or 25 μg/mL), hygromycin (200 μg/mL), and/or gentamicin (10 μg/mL).
# Peptide sensitivity and MIC assays. Lyophilized peptides (Smartox Biotechnology, CPC Scientific. ABclonal) were solubilized to 10 mM in Tris buffer, pH 8, prior to making a 2-fold dilution series in MHBII cation adjusted broth with highest final assay concentration of 400-800 μM. Bacteria were grown to log phase and added to final OD600˜0.001. The final EDTA concentration was 0.5 mM for E. coli strains and 0.125 mM for USA300. The final volume of 10 μL/well in a 384 well black, clear bottom plate (Corning) was spun <1 min at <250×g and then incubated at 37° C. After 4 h, an equal volume (10 μL) of BacTiter-Glo™ (Promega) was added to each well and luminescence was read after 5 min on an EnVision plate reader (PerkinElmer). To measure the minimal inhibitory concentrations (MICs), bacteria from fresh overnight plates or log phase cultures were diluted with or without EDTA and peptides as described above to final OD600˜0.0002. Plates were incubated at 37° C. for 20 h before measuring OD600 with an EnVision plate reader.
compound,measurement,setting,value
CSCC[C@@H](C(=O)N[C@@H](CN)C(=O)N[C@@H](Cc1ccccc1)C(=O)N[C@@H](CCCNC(=N)N)C(=O)N[C@@H](CCCNC(=N)N)C(=O)N[C@@H](Cc1ccccc1)C(=O)N[C@@H](CC(C)C)C(=O)N[C@@H](CCC(=O)O)C(=O)N[C@@H](CCCCN)C(=O)N[C@@H](Cc1c[nH]c2ccccc12)C(=O)NCC(=O)N[C@@H](CC(C)C)C(=O)N[C@@H](CC(C)C)C(=O)N[C@@H](CCCNC(=N)N)C(N)=O)N(C)C(=O)[C@@H]1CCCN1C(=O)[C@H](Cc1ccc(O)cc1)NC(C)=O [compound 95] (Ac-YP[NMeM][Dap]FRRFLEKWGLLR-NH2),MIC E. coli BW25113,Table 8,50.0 µM
CSCC[C@H](NC(=O)[C@H](CN)NC(=O)[C@H](CCSC)N(C)C(=O)[C@@H]1CCCN1C(=O)[C@H](Cc1ccc(O)cc1)NC(C)=O)C(=O)N[C@@H](CCCNC(=N)N)C(=O)N[C@@H](CCCNC(=N)N)C(=O)N[C@@H](Cc1ccccc1)C(=O)N[C@@H](CC(C)C)C(=O)N[C@@H](CCC(=O)O)C(=O)N[C@@H](CCCCN)C(=O)N[C@@H](Cc1c[nH]c2ccccc12)C(=O)NCC(=O)N[C@@H](CC(C)C)C(=O)N[C@@H](CC(C)C)C(=O)N[C@@H](CCCNC(=N)N)C(N)=O [compound 96] (Ac-YP[NMeM][Dap]MRRFLEKWGLLR-NH2),MIC E. coli BW25113,Table 8,50.0 µM
CSCC[C@@H](C(=O)N[C@@H](CN)C(=O)N(C)[C@@H](C)C(=O)N[C@@H](CCCNC(=N)N)C(=O)N[C@@H](CCCNC(=N)N)C(=O)N[C@@H](Cc1ccccc1)C(=O)N[C@@H](CC(C)C)C(=O)N[C@@H](CCC(=O)O)C(=O)N[C@@H](CCCCN)C(=O)N[C@@H](Cc1c[nH]c2ccccc12)C(=O)NCC(=O)N[C@@H](CC(C)C)C(=O)N[C@@H](CC(C)C)C(=O)N[C@@H](CCCNC(=N)N)C(N)=O)N(C)C(=O)[C@@H]1CCCN1C(=O)[C@H](Cc1ccc(O)cc1)NC(C)=O [compound 97] (Ac-YP[NMeM][Dap][NMeA]RRFLEKWGLLR-NH2),MIC E. coli BW25113,Table 8,200.0 µM
CSCC[C@@H](C(=O)N[C@@H](CCCNC(=N)N)C(=O)N[C@@H](CCCNC(=N)N)C(=O)N[C@@H](Cc1ccccc1)C(=O)N[C@@H](CC(C)C)C(=O)N[C@@H](CCC(=O)O)C(=O)N[C@@H](CCCCN)C(=O)N[C@@H](Cc1c[nH]c2ccccc12)C(=O)NCC(=O)N[C@@H](CC(C)C)C(=O)N[C@@H](CC(C)C)C(=O)N[C@@H](CCCNC(=N)N)C(N)=O)N(C)C(=O)[C@H](CN)NC(=O)[C@H](CCSC)N(C)C(=O)[C@@H]1CCCN1C(=O)[C@H](Cc1ccc(O)cc1)NC(C)=O [compound 98] (Ac-YP[NMeM][Dap][NMeM]RRFLEKWGLLR-NH2),MIC E. coli BW25113,Table 8,25.0 µM
CC(=O)N[C@@H](Cc1ccc(O)cc1)C(=O)N1CCC[C@H]1C(=O)N(C)[C@@H](Cc1ccccc1)C(=O)N[C@H](C(=O)N(C)[C@@H](C)C(=O)N[C@@H](CCCNC(=N)N)C(=O)N[C@@H](CCCNC(=N)N)C(=O)N[C@@H](Cc1ccccc1)C(=O)N[C@@H](CC(C)C)C(=O)N[C@@H](CCC(=O)O)C(=O)N[C@@H](CCCCN)C(=O)N[C@@H](Cc1c[nH]c2ccccc12)C(=O)NCC(=O)N[C@@H](CC(C)C)C(=O)N[C@@H](CC(C)C)C(=O)N[C@@H](CCCNC(=N)N)C(N)=O)[C@@H](C)O [compound 99] (Ac-YP[NMeF]T[NMeA]RRFLEKWGLLR-NH2),MIC E. coli BW25113,Table 8,200.0 µM
CSCC[C@@H](C(=O)N[C@@H](CN)C(=O)N(C)[C@@H](Cc1ccccc1)C(=O)N[C@@H](CCCNC(=N)N)C(=O)N[C@@H](CCCNC(=N)N)C(=O)N[C@@H](Cc1ccccc1)C(=O)N[C@@H](CC(C)C)C(=O)N[C@@H](CCC(=O)O)C(=O)N[C@@H](CCCCN)C(=O)N[C@@H](Cc1c[nH]c2ccccc12)C(=O)NCC(=O)N[C@@H](CC(C)C)C(=O)N[C@@H](CC(C)C)C(=O)N[C@@H](CCCNC(=N)N)C(N)=O)N(C)C(=O)[C@@H]1CCCN1C(=O)[C@H](Cc1ccc(O)cc1)NC(C)=O [compound 100] (Ac-YP[NMeM][Dap][NMeF]RRFLEKWGLLR-NH2),MIC E. coli BW25113,Table 8,25.0 µM
CSCC[C@H](NC(=O)[C@H](CN)NC(=O)[C@H](Cc1ccc(O)cc1)NC(C)=O)C(=O)N1CCC[C@H]1C(=O)N[C@@H](Cc1ccccc1)C(=O)N[C@@H](CCCNC(=N)N)C(=O)N[C@@H](CCCNC(=N)N)C(=O)N[C@@H](Cc1ccccc1)C(=O)N[C@@H](CC(C)C)C(=O)N[C@@H](CCC(=O)O)C(=O)N[C@@H](CCCCN)C(=O)N[C@@H](Cc1c[nH]c2ccccc12)C(=O)NCC(=O)N[C@@H](CC(C)C)C(=O)N[C@@H](CC(C)C)C(=O)N[C@@H](CCCNC(=N)N)C(N)=O [compound 102] (Ac-Y[Dap]MPFRRFLEKWGLLR-NH2),MIC E. coli BW25113,BW25113,25.0 µM
CSCC[C@H](NC(=O)[C@H](CN)NC(=O)[C@@H]1CCCN1C(=O)[C@H](Cc1ccc(O)cc1)NC(C)=O)C(=O)N[C@@H](Cc1ccccc1)C(=O)N[C@@H](CCCNC(=N)N)C(=O)N[C@@H](CCCNC(=N)N)C(=O)N[C@@H](Cc1ccccc1)C(=O)N[C@@H](CC(C)C)C(=O)N[C@@H](CCC(=O)O)C(=O)N[C@@H](CCCCN)C(=O)N[C@@H](Cc1c[nH]c2ccccc12)C(=O)NCC(=O)N[C@@H](CC(C)C)C(=O)N[C@@H](CC(C)C)C(=O)N[C@@H](CCCNC(=N)N)C(N)=O [compound 103] (Ac-YP[Dap]MFRRFLEKWGLLR-NH2),MIC E. coli BW25113,BW25113,<12.5 µM
CSCC[C@H](NC(=O)[C@@H]1CCCN1C(=O)[C@H](Cc1ccc(O)cc1)NC(C)=O)C(=O)N[C@@H](Cc1ccccc1)C(=O)N[C@@H](CN)C(=O)N[C@@H](CCCNC(=N)N)C(=O)N[C@@H](CCCNC(=N)N)C(=O)N[C@@H](Cc1ccccc1)C(=O)N[C@@H](CC(C)C)C(=O)N[C@@H](CCC(=O)O)C(=O)N[C@@H](CCCCN)C(=O)N[C@@H](Cc1c[nH]c2ccccc12)C(=O)NCC(=O)N[C@@H](CC(C)C)C(=O)N[C@@H](CC(C)C)C(=O)N[C@@H](CCCNC(=N)N)C(N)=O [compound 104] (Ac-YPMF[Dap]RRFLEKWGLLR-NH2),MIC E. coli BW25113,Table 8,200 µM
CSCC[C@H](NC(=O)[C@@H]1CCCN1C(=O)[C@H](Cc1ccc(O)cc1)NC(C)=O)C(=O)N[C@@H](CCCNC(=N)N)C(=O)N[C@@H](Cc1ccccc1)C(=O)N[C@@H](CN)C(=O)N[C@@H](CCCNC(=N)N)C(=O)N[C@@H](Cc1ccccc1)C(=O)N[C@@H](CC(C)C)C(=O)N[C@@H](CCC(=O)O)C(=O)N[C@@H](CCCCN)C(=O)N[C@@H](Cc1c[nH]c2ccccc12)C(=O)NCC(=O)N[C@@H](CC(C)C)C(=O)N[C@@H](CC(C)C)C(=O)N[C@@H](CCCNC(=N)N)C(N)=O [compound 105] (Ac-YPMRF[Dap]RFLEKWGLLR-NH2),MIC E. coli BW25113,BW25113,50 µM
CSCC[C@H](NC(=O)[C@H](CN)NC(=O)[C@H](CCSC)NC(=O)[C@@H]1CCCN1C(=O)[C@H](CCCNC(=N)N)NC(C)=O)C(=O)N[C@@H](CCCNC(=N)N)C(=O)N[C@@H](CCCNC(=N)N)C(=O)N[C@@H](Cc1ccc(-c2ccccc2)cc1)C(=O)N[C@@H](CC(C)C)C(=O)N[C@@H](C)C(=O)N[C@@H](CCCCN)C(=O)N[C@@H](Cc1c[nH]c2ccccc12)C(=O)NCC(=O)N[C@@H](CC(C)C)C(N)=O [compound 217] (Ac-RPM[Dap]MRR[Bip]LAKWGL-NH2),MIC E. coli BW25113,BW25113,12.5 µM
CSCC[C@H](NC(=O)[C@H](CN)NC(=O)[C@H](CCSC)NC(=O)[C@@H]1CCCN1C(=O)[C@H](CCCNC(=N)N)NC(C)=O)C(=O)N[C@@H](CCCNC(=N)N)C(=O)N[C@@H](CCCNC(=N)N)C(=O)N[C@@H](Cc1ccc(-c2ccccc2)cc1)C(=O)N[C@@H](CC(C)C)C(=O)N[C@@H](CCC(=O)O)C(=O)N[C@@H](CCCCN)C(=O)N[C@@H](CCCNC(=N)N)C(=O)NCC(=O)N[C@@H](CC(C)C)C(N)=O [compound 218] (Ac-RPM[Dap]MRR[Bip]LEKRGL-NH2),MIC E. coli BW25113,Table 8,200.0 µM
CSCC[C@H](NC(=O)[C@H](CN)NC(=O)[C@H](CCSC)NC(=O)[C@@H]1CCCN1C(=O)[C@H](CCCNC(=N)N)NC(C)=O)C(=O)N[C@@H](CCCNC(=N)N)C(=O)N[C@@H](CCCNC(=N)N)C(=O)N[C@@H](Cc1ccc(-c2ccccc2)cc1)C(=O)N[C@@H](CC(C)C)C(=O)N[C@@H](C)C(=O)N[C@@H](CCCCN)C(=O)N[C@@H](CCCNC(=N)N)C(=O)NCC(=O)N[C@@H](CC(C)C)C(N)=O [compound 219] (Ac-RPM[Dap]MRR[Bip]LAKRGL-NH2),MIC E. coli BW25113,BW25113,25.0 µM
CSCC[C@H](NC(=O)[C@@H]1CCCN1C(=O)[C@H](CCCNC(=N)N)NC(C)=O)C(=O)N[C@H](C(=O)NC(C)(C)C(=O)N[C@@H](CCCNC(=N)N)C(=O)N[C@@H](CCCNC(=N)N)C(=O)N[C@@H](Cc1c[nH]c2ccccc12)C(=O)N[C@@H](CC(C)C)C(=O)N[C@@H](C)C(=O)N[C@@H](CCCCN)C(=O)N[C@@H](CCCNC(=N)N)C(=O)NCC(=O)N[C@@H](CC(C)C)C(N)=O)[C@@H](C)O [compound 220] (Ac-RPMT[Aib]RRWLAKRGL-NH2),MIC E. coli BW25113,BW25113,100.0 µM
CSCC[C@H](NC(=O)[C@@H]1CCCCN1C(=O)[C@H](CCCNC(=N)N)NC(C)=O)C(=O)N[C@H](C(=O)N[C@@H](C)C(=O)N[C@@H](CCCNC(=N)N)C(=O)N[C@@H](CCCNC(=N)N)C(=O)N[C@@H](Cc1c[nH]c2ccccc12)C(=O)N[C@@H](CC(C)C)C(=O)N[C@@H](C)C(=O)N[C@@H](CCCCN)C(=O)N[C@@H](CCCNC(=N)N)C(=O)NCC(=O)N[C@@H](CC(C)C)C(N)=O)[C@@H](C)O [compound 221] (Ac-R[Pip]MTARRWLAKRGL-NH2),MIC E. coli BW25113,BW25113,200.0 µM
